Experimental data from US20110312984A1, “STAT3 INHIBITORS” (priority 2008, published 2011).

Columns and labels:
Type in all cases: cell-based
Stat1 = target: T1, Stat1 (Homo sapiens, UniProt P42224); assay: Immunoblot assay: IFN-γ-mediated phosphorylation of Stat1 in HepG2 cells; details: 300 μM, 1 hour at 37° C. before IFN-γ stimulation
T1 construct: endogenous in cells; host or cells: HepG2
T1 sequence (P42224 1-750): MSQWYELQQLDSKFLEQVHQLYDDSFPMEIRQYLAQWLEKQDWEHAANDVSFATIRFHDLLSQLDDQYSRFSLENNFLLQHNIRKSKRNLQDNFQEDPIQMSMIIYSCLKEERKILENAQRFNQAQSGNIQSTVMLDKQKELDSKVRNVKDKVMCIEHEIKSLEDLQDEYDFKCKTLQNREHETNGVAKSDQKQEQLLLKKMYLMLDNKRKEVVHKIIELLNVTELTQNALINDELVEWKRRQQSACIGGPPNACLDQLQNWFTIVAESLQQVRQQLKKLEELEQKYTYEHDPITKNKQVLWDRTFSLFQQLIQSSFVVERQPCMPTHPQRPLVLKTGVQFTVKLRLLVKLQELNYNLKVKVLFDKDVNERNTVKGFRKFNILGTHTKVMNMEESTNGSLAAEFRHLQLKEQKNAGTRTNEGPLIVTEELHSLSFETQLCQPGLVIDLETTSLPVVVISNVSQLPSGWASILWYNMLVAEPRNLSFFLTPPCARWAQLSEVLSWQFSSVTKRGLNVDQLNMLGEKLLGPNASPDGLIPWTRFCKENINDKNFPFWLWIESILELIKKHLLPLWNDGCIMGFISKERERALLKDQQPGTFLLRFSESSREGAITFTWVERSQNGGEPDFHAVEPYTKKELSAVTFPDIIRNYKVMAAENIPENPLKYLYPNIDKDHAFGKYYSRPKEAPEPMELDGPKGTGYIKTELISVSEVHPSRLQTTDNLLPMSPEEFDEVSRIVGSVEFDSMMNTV
Protocol: Immunoblot assay. The human hepatocellular carcinoma cell line (HepG2) was grown in 6-well plates under standard conditions. Cells were pretreated with compounds (0, 1, 3, 10, 30, 100 and 300 uM) for 1 hour then stimulated under optimal conditions with either interferon gamma (IFN-γ; 30 ng/ml for 30 min) to activate Stat1 or interleukin-6 (IL-6; 30 ng/ml for 30 min) to activate Stat3 (30-31). Cultures were then harvested and proteins extracted using high-salt buffer, as described (Shao et al., 2006). Briefly, extracts were mixed with 2× sodium dodecyl sulfate (SDS) sample buffer (125 mmol/L Tris-HCL pH 6.8; 4% SDS; 20% glycerol; 10% 2-mercaptoethanol) at a 1:1 ratio and heated for 5 minutes at 100° C. Proteins (20 μg) were separated by 7.5% SDS-PAGE and transferred to polyvinylidene fluoride (PVDF) membrane (Millipore, Waltham, Mass.) and immunoblotted. Prestained molecular weight markers (Biorad, Hercules, Calif.) were included in each gel. Membranes were probed serially with antibody against Stat1 pY^701 or Stat3 pY^705 followed by antibody against Stat1 or Stat3 (Transduction labs, Lexington, Ky.) then antibody against β-actin (Abcam, Cambridge, Mass.). Membranes were stripped between antibody probing using Restore™ Western Blot Stripping Buffer (Thermo Fisher Scientific Inc., Waltham, Mass.) per the manufacturer's instructions. Horseradish peroxidase-conjugated goat-anti-mouse IgG was used as the secondary antibody (Invitrogen Carlsbad, Calif.) and the membranes were developed with enhanced chemiluminescence (ECL) detection system (Amersham Life Sciences Inc.; Arlington Heights, Ill.).
EXP IIC. Ligand-mediated pStat3 and pStat1 inhibition assays. […] Briefly, human hepatocellular carcinoma cells (HepG2) are grown in 6-well plates and pretreated with compounds (0, 0.1, 0.3, 1, 3, 10, 30, 100 μM) for 1 hour then stimulated under optimal conditions with either interleukin-6 (IL-6; 30 ng/ml for 30 min) to activate Stat3 or interferon gamma (IFN-γ; 30 ng/ml for 30 min) to activate Stat1. Cells are harvested and proteins extracted using high-salt buffer, mixed with 2× sodium dodecyl sulfate (SDS) sample buffer (125 mmol/L Tris-HCL pH 6.8; 4% SDS; 20% glycerol; 10% 2-mercaptoethanol) at a 1:1 ratio then heated for 5 minutes at 100° C. Proteins (20 μg) are separated by 7.5% SDS-PAGE and transferred to polyvinylidene fluoride (PVDF) membrane (Millipore, Waltham, Mass.) and immunoblotted. Membranes are probed serially with antibody against Stat1 pY701 or Stat3 pY705 followed by antibody against Stat 1 or Stat3 (Transduction labs, Lexington, Ky.) then antibody against β-actin (Abcam, Cambridge, Mass.). Membranes are stripped between antibody probings using Restore™ Western Blot Stripping Buffer (Thermo Fisher Scientific Inc., Waltham, Mass.) per the manufacturer's instructions. Horseradish peroxidase-conjugated goat-anti-mouse IgG is used as the secondary antibody (Invitrogen Carlsbad, Calif.) and the membranes are developed with enhanced chemiluminescence (ECL) detection system (Amersham Life Sciences Inc.; Arlington Heights, Ill.). Band intensities are quantified by densitometry. The value of each pStat3 band is divided by its corresponding total Stat3 band intensity; the results are normalized to the DMSO-treated control value. This value was plotted as a function of the log compound concentration. The best-fitting curve is determined using 4-Parameter Logistic Model/Dose Response/XLfit 4.2, IDBS software and was used to calculate the IC50 value.

MCF7 = assay: Breast cancer cell line apoptosis assay (nucleosome ELISA); details: Homo sapiens, MCF7, 24 h
Protocol: (§1) Breast cancer cell line apoptosis assay. Human breast carcinoma cell lines MDA-MB-468, MDA-MB-231, MBA-MD-435 and MCF7 were kindly provided by Dr. Powel H. Brown (Breast Cancer Center, Baylor College of Medicine). Breast cancer cell line, MDA-MB-453 was kindly provided by Dr. Shou Jiang (Breast Cancer Center, Baylor College of Medicine). All cell lines were grown in DMEM medium supplemented with 10% fetal bovine serum (FBS), 25,000 units penicillin G, 25,000 ug streptomycin, and 131.4 mg L-Glutamine and cultured in the incubator under the condition of 95% air, 5% CO2 at 37° C. (Garcia et al., 2001). Cells were seeded at 2,500 cells/cm^2 into 12-well plates. At 80% confluency, cells were washed with PBS and supplemented with fresh medium containing compound or the topoisomerase I-inhibitor, camptothecin, at 0, 0.1, 03, 1, 3, 10, 30, 100, 300 µM. At 24 hours, treatment was terminated by removing the medium from each well. Cells were lysed with cell lysis buffer (600 μl for 30 minutes at 25° C.). Cell lysate (200 μl) was centrifuged at 200×g for 10 minutes and 20 μl of each supernatant was assayed for nucleosomes using the Cell Death Detection ELISA (Roche Applied Science) as described by the manufacturer. The percent maximum nucleosome level was calculated by dividing the nucleosome level by the maximum nucleosome level achieved in the assay and multiplying by 100. […]

MDA-MB-453 = assay: as above; details: Homo sapiens, MDA-MB-453, 24 h
Protocol: as §1

Stat1 phosphorylation blocked (Stat1): did not
EC50 (MCF7): 15.5 µM
EC50 (MDA-MB-453): 17.2 µM
SMILES: O=C(O)CSc1cc(NS(=O)(=O)c2ccc(C(=O)O)cc2)c2ccccc2c1O [Cpd188, 4-[({3-[(carboxymethyl)thio]-4-hydroxy-1-naphthyl}amino)sulfonyl]benzoic acid]
